Test results: ChEMBL document CHEMBL6074684, “Structure-activity relationship study of novel evodiamine amino acid conjugates with potent anti-colorectal cancer efficacy” (Eur J Med Chem, 2025)
pIC50: −log10 of the molar value. Converted amounts (≈) assume the structure as drawn. The source made the active and inactive calls. The calls are words filed in the database; no cut-off is given here.

Legend:
Mitochondrial membrane [1] = assay: Induction of mitochondrial membrane potential loss in human RKO cells assessed as decrease in TMRE positive cells at 90 nM incubated for 24 hrs by TMRE staining based flow cytometric analysis; format: cell membranes
[2] = Tmax in male Sprague-Dawley rat at 50 mg/kg, ip measured after 24 hrs by LC-MS/MS analysis; format: ADME, organism-based; conditions: in vivo
RKO [3] = assay: Cell cycle arrest in human RKO cells assessed as accumulation of cells at G1 phase at 90 nM incubated for 24 hrs by […]PI staining based flow cytometric analysis (reference value: 35.29 %); format: functional
LoVo [4] = assay: Induction of apoptosis in human LoVo cells assessed as apoptosis rate at 90 nM incubated for 24 hrs by Annexin V/PI staining based flow cytometric analysis (reference value: 4.71 %); format: functional
Mitochondrial membrane [5] = assay: Induction of mitochondrial membrane potential loss in human LoVo cells assessed as decrease in TMRE positive cells at 90 nM incubated for 24 hrs by TMRE staining based flow cytometric analysis; format: cell membranes
LoVo [6] = assay: Cell cycle arrest in human LoVo cells assessed as accumulation of cells at S phase cells at 90 nM incubated for 24 hrs by […]PI staining based flow cytometric analysis (reference value: 54.99 %); format: functional
[7] = Toxicity in male BALB/c nude mouse xenografted with human LoVo cells assessed as body weight loss at 40 mg/kg, ip administered once daily for 14 days; format: organism-based; conditions: in vivo, 336 h, time 14 day
RKO [8] = assay: Cell cycle arrest in human RKO cells assessed as accumulation of cells at S phase at 90 nM incubated for 24 hrs by […]PI staining based flow cytometric analysis (reference value: 43.36 %); format: functional
LoVo [9] = assay: Antiproliferative activity against human LoVo cells assessed as inhibition of cell growth incubated for 72 hrs by MTT assay; format: functional, cell-based
LoVo [10] = assay: Cell cycle arrest in human LoVo cells assessed as accumulation of cells at G1 phase cells at 90 nM incubated for 24 hrs by […]PI staining based flow cytometric analysis (reference value: 29.69 %); format: functional
RKO [11] = assay: Antiproliferative activity against human RKO cells assessed as reduction in cell viability measured after 24 hrs; format: functional, cell-based; conditions: dose 40-200 nmol/L
HCT-116 = assay: Antiproliferative activity against human […] cells assessed as inhibition of cell growth incubated for 72 hrs by MTT assay; format: functional, cell-based; conditions: HCT-116, 72 h
LoVo [12] = assay: Induction of morphological changes in human LoVo cells assessed as appearance of contracted nucleus at 90 nM incubated for 24 hrs by Giemsa staining based microscopic analysis; format: functional, cell-based
[13] = AUC (0 to t) in male Sprague-Dawley rat at 50 mg/kg, ip measured after 24 hrs by LC-MS/MS analysis; format: ADME, organism-based; conditions: in vivo
[14] = Cmax in male Sprague-Dawley rat at 50 mg/kg, ip measured after 24 hrs by LC-MS/MS analysis; format: ADME, organism-based; conditions: in vivo
RKO [15] = assay: Induction of morphological changes in human RKO cells assessed as appearance of condensed morphology at 90 nM incubated for 24 hrs by Giemsa staining based microscopic analysis; format: functional, cell-based
LoVo [16] = assay: Cell cycle arrest in human LoVo cells assessed as accumulation of cells at G2 phase cells at 90 nM incubated for 24 hrs by […]PI staining based flow cytometric analysis (reference value: 14.84 %); format: functional
RKO [17] = assay: Induction of apoptosis in human RKO cells assessed as apoptosis rate at 90 nM incubated for 24 hrs by Annexin V/PI staining based flow cytometric analysis (reference value: 4.87 %); format: functional
RKO [18] = assay: Induction of morphological changes in human RKO cells assessed as appearance of contracted nucleus at 90 nM incubated for 24 hrs by Giemsa staining based microscopic analysis; format: functional, cell-based
LoVo [19] = assay: Antitumor activity against human LoVo cells xenografted in male BALB/c nude mouse assessed as tumor growth inhibition at 40 mg/kg, ip administered once daily for 14 days relative to control; format: functional; conditions: 336 h, time 14 day, read-out: TGI
[20] = Apparent clearance during terminal phase in male Sprague-Dawley rat at 50 mg/kg, ip measured after 24 hrs by LC-MS/MS analysis; format: ADME, organism-based; conditions: in vivo, read-out: CLz/F (converted)
LoVo [21] = assay: Antiproliferative activity against human LoVo cells assessed as reduction in cell viability measured after 24 hrs; format: functional, cell-based; conditions: dose 40-200 nmol/L
[22] = Half-life in male Sprague-Dawley rat at 50 mg/kg, ip measured after 24 hrs by LC-MS/MS analysis; format: ADME, organism-based; conditions: in vivo
RKO [23] = assay: Antiproliferative activity against human RKO cells assessed as inhibition of cell growth incubated for 72 hrs by MTT assay; format: functional, cell-based
HT-29 = assay: Antiproliferative activity against human HT-29 cells assessed as inhibition of cell growth incubated for 72 hrs by MTT assay; format: functional, cell-based; conditions: HT-29, 72 h
[24] = Aqueous solubility of compound by HPLC analysis; format: physicochemical
RKO [25] = assay: Cell cycle arrest in human RKO cells assessed as accumulation of cells at G2 phase at 90 nM incubated for 24 hrs by […]PI staining based flow cytometric analysis (reference value: 20.07 %); format: functional
LoVo [26] = assay: Induction of morphological changes in human LoVo cells assessed as appearance of condensed morphology at 90 nM incubated for 24 hrs by Giemsa staining based microscopic analysis; format: functional, cell-based
[27] = target: T1, DNA topoisomerase 1 (Homo sapiens) (UniProt P11387); assay: Inhibition of topoisomerase 1 (unknown origin) mediated DNA relaxation at 100 uM preincubated for 20 mins followed by pBR322 plasmid DNA addition and measured after 15 mins by red nucleic acid gel staining based agarose gel electrophoresis; conditions: time 35.0 min
T1 sequence (whole entry): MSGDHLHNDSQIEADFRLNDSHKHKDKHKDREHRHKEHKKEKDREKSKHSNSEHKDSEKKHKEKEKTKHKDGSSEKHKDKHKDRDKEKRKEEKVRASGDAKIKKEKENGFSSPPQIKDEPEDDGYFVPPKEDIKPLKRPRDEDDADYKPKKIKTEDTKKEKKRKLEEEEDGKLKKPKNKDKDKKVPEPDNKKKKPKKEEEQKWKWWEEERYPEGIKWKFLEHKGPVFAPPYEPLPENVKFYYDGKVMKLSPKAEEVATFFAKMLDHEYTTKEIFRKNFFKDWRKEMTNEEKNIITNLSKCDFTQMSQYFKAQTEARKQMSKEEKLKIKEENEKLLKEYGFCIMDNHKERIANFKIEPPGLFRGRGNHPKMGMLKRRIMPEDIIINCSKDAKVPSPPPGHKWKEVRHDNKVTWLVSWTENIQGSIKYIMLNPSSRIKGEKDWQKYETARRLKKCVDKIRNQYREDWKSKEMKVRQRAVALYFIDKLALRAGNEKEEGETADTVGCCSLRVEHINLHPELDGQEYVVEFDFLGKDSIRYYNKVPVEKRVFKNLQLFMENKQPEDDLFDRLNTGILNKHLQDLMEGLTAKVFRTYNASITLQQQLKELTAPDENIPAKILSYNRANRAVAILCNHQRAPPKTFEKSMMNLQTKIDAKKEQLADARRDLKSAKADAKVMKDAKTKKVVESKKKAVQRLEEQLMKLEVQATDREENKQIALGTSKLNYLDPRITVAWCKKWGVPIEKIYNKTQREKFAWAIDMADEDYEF

SGC-7901 = assay: Antiproliferative activity against human SGC-7901 cells assessed as inhibition of cell growth incubated for 72 hrs by MTT assay; format: functional, cell-based; conditions: SGC-7901, 72 h
MGC-803 = assay: Antiproliferative activity against human MGC-803 cells assessed as inhibition of cell growth incubated for 72 hrs by MTT assay; format: functional, cell-based; conditions: MGC-803, 72 h
MCF7 = assay: Antiproliferative activity against human MCF7 cells assessed as inhibition of cell growth incubated for 72 hrs by MTT assay; format: functional, cell-based; conditions: MCF7, 72 h
Huh-7 = assay: Antiproliferative activity against human Huh-7 cells assessed as inhibition of cell growth incubated for 72 hrs by MTT assay; format: functional, cell-based; conditions: Huh-7, 72 h
SK-HEP1 = assay: Antiproliferative activity against human SK-HEP1 cells assessed as inhibition of cell growth incubated for 72 hrs by MTT assay; format: functional, cell-based; conditions: SK-HEP1, 72 h
HGC-27 = assay: Antiproliferative activity against human HGC-27 cells assessed as inhibition of cell growth incubated for 72 hrs by MTT assay; format: functional, cell-based; conditions: HGC-27, 72 h

O=C1c2cc(F)ccc2N(c2cccc(F)c2)[C@@H]2c3[nH]c4ccc(O)cc4c3CCN12
Activity (Mitochondrial membrane [1]): Active | Tmax [2]: 0.5 h | Activity (RKO [3]): 35.52% | Activity (LoVo [4]): 25.44% | Activity (Mitochondrial membrane [5]): Active | Activity (LoVo [6]): 48.04% | Activity [7]: Toxic | Activity (RKO [8]): 21.88% | pIC50 (LoVo [9]): 6.77 | Activity (LoVo [10]): 18.84% | Activity (RKO [11]): Dose-dependent-effect | pIC50 (HCT-116): 6.57 | Activity (LoVo [12]): Active | AUC(0-t) at 24 h [13]: 4350 ng·h/mL | Cmax [14]: 2190 ng/mL | Activity (RKO [15]): Active | Activity (LoVo [16]): 31.88% | Activity (RKO [17]): 13.9% | Activity (RKO [18]): Active | inhibition in vivo at 40 mg/kg (LoVo [19]): 51.2% | CL/F [20]: 77.8 mL/min/kg | Activity (LoVo [21]): Dose-dependent-effect | half-life [22]: 4.18 h | pIC50 (RKO [23]): 6.89 | pIC50 (HT-29): 6.68 | solubility [24]: 3.24 µg/mL (≈ 7.76 µM) | Activity (RKO [25]): 42.34% | Activity (LoVo [26]): Active

O=C1c2cc(F)ccc2N(c2cccc(F)c2)C2c3[nH]c4ccc(O)cc4c3CCN12 (racemic)
inhibition [27]: Active; Little Effect Observed | pIC50 (LoVo [9]): 6.46 | pIC50 (HCT-116): 6.70 | pIC50 (RKO [23]): 6.77 | pIC50 (HT-29): 6.80 | solubility [24]: 7.58 µg/mL (≈ 18.2 µM)

CC(C)(C)OC(=O)N[C@@H](CCC(N)=O)C(=O)Oc1ccc2[nH]c3c(c2c1)CCN1C(=O)c2cc(F)ccc2N(c2cccc(F)c2)[C@@H]31
inhibition [27]: Active; Better Activity Than Evodiamine | pIC50 (LoVo [9]): 4.90 | pIC50 (SGC-7901): 4.22 | pIC50 (HCT-116): 4.72 | pIC50 (MGC-803): 4.82 | pIC50 (MCF7): 4.61 | pIC50 (Huh-7): 4.94 | pIC50 (RKO [23]): 5.03 | pIC50 (HT-29): 4.57 | pIC50 (SK-HEP1): 4.43 | pIC50 (HGC-27): 4.73

CC(C)(C)OC(=O)N[C@@H](Cc1c[nH]c2ccccc12)C(=O)Oc1ccc2[nH]c3c(c2c1)CCN1C(=O)c2cc(F)ccc2N(c2cccc(F)c2)[C@@H]31
pIC50 (LoVo [9]): 4.74 | pIC50 (SGC-7901): 4.17 | pIC50 (HCT-116): 4.62 | pIC50 (MGC-803): 4.73 | pIC50 (MCF7): 4.51 | pIC50 (Huh-7): 4.87 | pIC50 (RKO [23]): 4.80 | pIC50 (HT-29): 4.52 | pIC50 (SK-HEP1): 4.44 | pIC50 (HGC-27): 4.59
